Reference: patent US5496824A, “Cyclopropane derivatives and anti-viral agent containing the same” (Ajinomoto Co., Inc., priority 1993, dated 1996)
Values after ≈ are worked out from the molar mass of the structure shown.

Columns and labels:
Assay type in all cases: cell-based
[1] = tested on: HSV-1 (Tomioka strain); experiment: Anti-viral activity against herpes simplex virus, neutral red dye-uptake method in Vero cells; settings: Human alphaherpesvirus 1, 72 h, 3 days at 37° C., read-out: ID50 (the source's name)
Description: (§1) The anti-viral activity of the prepared compounds against herpes simplex virus was measured by neutral red dye-uptake method (J. Infect. Dis. 148: 868 (1983)) with modification. Precisely, threefold dilutions of the compounds were prepared in 100 μl volumes of culture medium in the wells of a 96-well culture plate. Sixty microliters of a suspension of Vero cells (3×10^5 cells/ml) were then dispensed into each well. HSV-1 (Tomioka strain) was diluted in medium to approximately 100 TCID50 /40 μl, as determined by prior titration in a similar dye uptake assay, and 40 μl of viral suspension were added to the respective wells. Control wells containing no test compound and no virus (cell control) or no cells (blank control) were included in each plate. After 3 days incubation at 37° C. in 5% CO2 atmosphere, 50 μl of neutral red dye (0.15% in saline, pH 5.5) was dispensed into each well and the cultures were incubated for a further 45 min at 37° C. Unincorporated dye was removed by rinsing with PBS. The dye incorporated by viable cells was then eluted into 100 μl per well of citrate ethanol buffer (pH 4.2; equal volumes of 0.1 M Sorensen citrate buffer and ethanol), and absorbance at 540 nm of the solution was measured. […] As a comparative compound, acyclovir was used.

[2] = in vitro; settings: african green monkey, vero cells
Description: as §1

[3] = tested on: varicella zoster virus (Kawaguchi strain); experiment: Anti-viral activity against varicella zoster virus, plaque reduction assay in human embryonic lung (HEL) cells; settings: Human alphaherpesvirus 3, 72 h, 3 days, read-out: PI50 (50% plaque decrease concentration)
Description: The activity of test compounds against varicella zoster virus was measured by plaque reduction assay. Confluent monolayers of human embryonic lung (HEL) cells grown in 6-well plates were infected with varicella zoster virus (Kawaguchi strain) in such a way that each well might have 100 plaque-forming units. After incubated at 37 C. for one hour in 5% CO2 atmosphere, the inoculum was removed and 3 ml of maintenance media containing the test compound having a varying concentration was added thereto. The incubation was continued for 3 days. After incubation, the cells were fixed and stained, the number of plaques was counted microscopically. In comparison to the control, the 50% plaque decrease concentration (PI50) of the test compound was determined. As a comparative compound, acyclovir was used.

EC50 [1]	Structure (SMILES)	CC50 at 72 h [2]	IC50 [3]
78 mg/L (≈ 236 µM)	O=c1[nH]c(=O)n(C[C@]2(CO)C[C@@H]2CO)cc1/C=C/Br (relative stereo) [Example 15, 1-[1'α,2'β-2-bis(hydroxymethyl)cyclopropanyl-yl]methyl-5-[(E)-2-bromoethenyl]-2,4(1H,3H)-pyrimidinedione]	> 500 mg/L	87 mg/L (≈ 263 µM)
> 500 mg/L	O=c1[nH]c(=O)n(C[C@]2(CO)C[C@H]2CO)cc1F [Example 1, 1-[1'S,2'R-bis(hydroxymethyl)-cyclopropan-1'-yl]methyl-5-fluoro-2,4(1H,3H)pyrimidinedione]	> 500 mg/L	> 100 mg/L
295 mg/L (≈ 1130 µM)	O=c1[nH]c(=O)n(C[C@]2(CO)C[C@H]2CO)cc1Cl [Example 2, 1-[1'S,2'R-bis(hydroxymethyl)-cyclopropan-1'-yl]methyl-5-chloro-2,4(1H,3H)-pyrimidinedione]	> 500 mg/L	> 100 mg/L
215 mg/L (≈ 705 µM)	O=c1[nH]c(=O)n(C[C@]2(CO)C[C@H]2CO)cc1Br [Example 3, 1-[1'S,2'R-bis(hydroxymethyl)-cyclopropan-1'-yl]methyl-5-bromo-2,4(1H,3H)-pyrimidinedione]	> 500 mg/L	97 mg/L (≈ 318 µM)
90 mg/L (≈ 256 µM)	O=c1[nH]c(=O)n(C[C@]2(CO)C[C@H]2CO)cc1I [Example 4, 1-[1'S,2'R-bis(hydroxymethyl)-cyclopropan-1'-yl]methyl-5-iodo-2,4(1H,3H)-pyrimidinedione]	> 500 mg/L	9.3 mg/L (≈ 26.4 µM)
> 500 mg/L	O=c1[nH]c(=O)n(C[C@]2(CO)C[C@H]2CO)cc1C(F)(F)F [Example 5, 1-[1'S,2'R-bis(hydroxymethyl)-cyclopropan-1'-yl]methyl-5-trifluoromethyl-2,4(1H,3H)-pyrimidinedione]	234 mg/L (≈ 795 µM)	> 100 mg/L
3.2 mg/L (≈ 12.7 µM)	C=Cc1cn(C[C@]2(CO)C[C@H]2CO)c(=O)[nH]c1=O [Example 6, 1-[1'S,2'R-bis(hydroxymethyl)cyclopropan-1'-yl]methyl-5-ethenyl-2,4(1H,3H)-pyrimidinedione]	> 500 mg/L	11.1 mg/L (≈ 44 µM)
4.3 mg/L (≈ 15 µM)	O=c1[nH]c(=O)n(C[C@]2(CO)C[C@H]2CO)cc1/C=C/Cl [Example 7, 1-[1'S, 2'R-bis(hydroxymethyl)-cyclopropan-1'-yl]methyl-5-[(E)-2-chloroethenyl]-2,4(1H,3H)-pyrimidinedione]	> 500 mg/L	0.07 mg/L (≈ 0.244 µM)
14.5 mg/L (≈ 43.8 µM)	O=c1[nH]c(=O)n(C[C@]2(CO)C[C@H]2CO)cc1/C=C/Br [Example 8, 1-[1'S,2'R-bis(hydroxymethyl)-cyclopropan-1'-yl]methyl-5-[(E)-2-bromoethenyl]-2,4(1H,3H)-pyrimidinedione]	> 500 mg/L	0.031 mg/L (≈ 0.0936 µM)
24.6 mg/L (≈ 65.1 µM)	O=c1[nH]c(=O)n(C[C@]2(CO)C[C@H]2CO)cc1/C=C/I [Example 10, 1-[1'S,2'R-bis(hydroxymethyl)-cyclopropan-1'-yl]methyl-5-[(E)-2-iodoethenyl]-2,4(1H,3H)-pyrimidinedione]	330 mg/L (≈ 873 µM)	0.054 mg/L (≈ 0.143 µM)
310 mg/L (≈ 1240 µM)	C#Cc1cn(C[C@]2(CO)C[C@H]2CO)c(=O)[nH]c1=O [Example 11, 1-[1'S,2'R-bis(hydroxymethyl)-cyclopropan-1'-yl]methyl-5-ethynyl-2,4(1H,3H)-pyrimidinedione]	> 500 mg/L	> 100 mg/L
325 mg/L (≈ 1230 µM)	CC#Cc1cn(C[C@]2(CO)C[C@H]2CO)c(=O)[nH]c1=O [Example 12, 1-[1'S,2'R-bis(hydroxymethyl)-cyclopropan-1'-yl]methyl-5-(1-propynyl)-2,4(1H,3H)-pyrimidinedione]	> 500 mg/L	19.8 mg/L (≈ 74.9 µM)
24.3 mg/L (≈ 95.6 µM)	CCc1cn(C[C@]2(CO)C[C@H]2CO)c(=O)[nH]c1=O [Example 13, 1-[1'S,2'R-bis(hydroxymethyl)-cyclopropan-1'-yl]methyl-5-ethyl-2,4(1H,3H)-pyrimidinedione]	> 500 mg/L	95 mg/L (≈ 374 µM)
> 500 mg/L	O=c1[nH]c(=O)n(C[C@@]2(CO)C[C@@H]2CO)cc1/C=C/Br [Example 14, 1-[1'R,2'S-bis(hydroxymethyl)-cyclopropan-1'-yl]methyl-5-[(E)-2-bromoethenyl]-2,4(1H,3H)-pyrimidinedione]	> 500 mg/L	7.4 mg/L (≈ 22.3 µM)

Structure (SMILES)	EC50 [1]	CC50 at 72 h [2]	IC50 [3]
Nc1nc2c(ncn2COCCO)c(=O)[nH]1 [acyclovir, reference compound]	0.8 mg/L (≈ 3.55 µM)	> 500 mg/L	
